We go through six molecules from PMC6433232, “Targeting mitochondria in cancer therapy could provide a basis for the selective anti-cancer activity” (PLoS ONE, 2019).

The structures appear in SMILES notation. Like-named read-outs stand apart in the source and are kept apart here.

Data set [1] has as its system breast carcinoma HCC1187 cells. As to the kind of experiment: cells. The data set is classed as cell-based. Conditions: for CC50: Homo sapiens. The text has this:
For further analyses, we used compounds that have the selective cytotoxicity index either above 20 (non-toxic compounds) or below 1 (toxic compounds) with the aim to identify targets that are responsible for the selective activity of the identified compounds toward cancer cells. To confirm that the effects of the selected compounds are not only specific to MIA PaCa-2 cells, we evaluated their cytotoxic activities on breast carcinoma HCC1187 cells (Table 1). […] For easy comparison, the data with MIA PaCa-2 cells were also included in Table 1. […] We also noticed that, again with a few exceptions, HCC1187 cells are more resistant to the non-toxic compounds in the presence of ATO as compared to MIA PaCa-2 cells. In contrast, HCC1187 cells are more sensitive to all toxic compounds in the presence of ATO as compared to MIA PaCa-2 cells. The high sensitivity of HCC1187 cells to toxic compounds contributed to the increased selective cytotoxicity index.

Another data set concerns MIA PaCa-2 cells. As to the kind of experiment: Hydrogen peroxide cell-based assay (ROS induction), MIA PaCa-2 cells. The following applies: Homo sapiens, hydrogen peroxide level relative to DMSO-treated cells (100%), read-out: ROS increase, % MIA PaCa-2. The protocol:
Cells were incubated for 2 h with either compounds (30 μM) or DMSO in a 96-well plate. After the treatment, 80 μl of cell culture medium was collected and the level of hydrogen peroxide was determined using a Hydrogen Peroxide Cell-Based Assay kit (Cayman).
Cells were incubated with the compounds for 4 h and the level of ROS induction was measured by a hydrogen peroxide cell-based assay kit. Compounds were assayed at a fixed concentration of 30 μM and the measured level of hydrogen peroxide was expressed as percentage in relation to DMSO-treated cells (100%). […] This distinction was more evident for compounds with the highest selective cytotoxicity index. […] We conclude that the selective induction of ROS in cancer cells is required but not sufficient factor for the selective anti-tumor activity.

In data set [2] the test system is Recombinant NADH/NADPH dehydrogenase. The data set is described as follows: NADH/NADPH dehydrogenase-mediated ROS generation assay. The following applies: 30 μM, 4 h at 37°C; for H2O2 generation, NADH/NADPH dehydrogenase -: absence of NADH/NADPH dehydrogenase; for H2O2 generation, NADH/NADPH dehydrogenase +: presence of NADH/NADPH dehydrogenase. The class given is biochemical. The protocol: Recombinant NADH/NADPH dehydrogenase (0.5 units/well) in a 96-well plate was incubated in 100 μl of the assay buffer (50 mM potassium phosphate buffer, pH 7.5 supplemented with 1 mM EDTA) containing NADPH (3 μM) and superoxide dismutase (SOD) (100 units/well) with and without compound (30 μM) for 4 h at 37°C. At the end of incubation, the level of hydrogen peroxide was measured using a Hydrogen Peroxide Assay kit (Cayman). Control samples were without NADH/NADPH dehydrogenase. The rate of NADH/NADPH dehydrogenase- and compound-mediated ROS production was determined by subtracting values that were obtained in the absence of NADPH dehydrogenase. One unit of NADH/NADPH dehydrogenase was defined as the amount of enzyme required to reduce 1.0 μmole cytochrome C per min/mg in the presence of menadione substrate at 37°C. One unit of SOD was defined as the amount of enzyme required to inhibit reduction of cytochrome C by 50% in a coupled system with xanthine oxidase at pH 7.8 at 25°C in a 3.0 mL reaction volume. Xanthine oxidase concentration should produce an initial ΔA550 of 0.025 ± 0.005 per min.
As the next step, we examined the capability of the selected compounds to generate ROS in the presence or absence of NADH/NADPH dehydrogenase (Table 1). ROS can be generated by NADH/NADPH-dehydrogenase via the one electron reduction of a quinone ring of 1,4-NQs. Unstable half-reduced quinones (semiquinones) transfer electrons to molecular oxygen, thus generating superoxide anion radicals (O2^●-), which are converted by SOD to hydrogen peroxide. We believe that our assay measuring compound’s ability to generate H2O2 in the presence or absence of NADH/NADPH dehydrogenase more closely resembles conditions inside the cell than the assay designed to measure compound’s redox potential values. […] To determine the ability of compounds to induce ROS, compounds were incubated for 4 h at 37°C with and without NADH/NADPH-dehydrogenase in the presence of NADPH as an electron donor and SOD to convert generated superoxide radicals into hydrogen peroxide. At the end of incubation, 10-acetyl-3,7-dihydroxyphenoxazine (ADHP) and horseradish peroxidase (HRP) were added to the reaction and the level of HRP-mediated formation of the fluorogenic product, resorufin, was measured on a plate reader. ROS production was detected in reactions with either the toxic or non-toxic compounds.

Data set [3] can be described thus: Distribution coefficient LogD. The class given is physicochemical. The following applies: pH 7.4. The source says:
We conclude that the analysis of the octanol-water partitioning is not sufficient to establish a link between degree of lipophilicity and biological activities of the selected compounds.

Data set [4] relates to human primary hepatocytes. The data set is described as follows: cells. Conditions: Hepatocyte, read-out: EC50, μM Hepatocytes.
Text: (§1) We selected hepatocytes as normal cells because hepatocytes are mediate toxicity to multiple drugs and are used as a standard to assess toxicity of drugs in vitro [28]. […] For comparison with the standard of care, doxorubicin was also included in this analysis.
Another data set can be described thus: in vitro. Conditions: human.
In data set [5] the test system is Complex I (bovine heart mitochondria). The data set is described as follows: MitoCheck Complex I activity assay. Conditions: 30 μM; for Mito Check I, enzyme residual activity as compared to DMSO-treated sample: bovine heart mitochondria, NADH oxidation.
Experimental: MitoCheck Complex I activity was determined as described in the manual of the manufacturer’s manual (Cayman). Briefly, compounds (30 μM) or DMSO were mixed with the Complex I activity assay buffer that contained bovine heart mitochondria reagent, NADH, and ubiquinone in the presence of KCN to inhibit complex IV activity. The level of Complex I activity was monitored in a kinetic assay of NADH oxidation by measuring a decrease in absorbance at 340 nm. The residual Complex I activity was calculated by dividing the rate of compound wells by the rate of DMSO wells for the linear portion of the curve.
To test possible effects of compounds on ETC, we analyzed the Complex I-mediated NADH oxidation using a MitoCheck Complex I Activity Assay Kit. The level of NADH oxidation was measured by a decrease in absorbance at 340 nm and expressed as percentage of residual activity in relation to DMSO-treated mitochondria (Table 1). […] Complex I activity was estimated by the rate of NADH oxidation which was also affected by NADH/NADPH-dehydrogenase-mediated redox cycling.
Setting [6] is: HCC1187, compound alone, unit not given in Table 1, read-out: LC50 HCC1187.
[7] abbreviates: octanol/water, read-out: LogD, pH = 7.4.

Text for in vitro: as §1

Take `CCCC(=O)NC1=C(Cl)C(=O)c2ccccc2C1=O` [compound 31]: the CC50 in data set [1] (setting [6]) was 1 µM. For the same molecule, in the data set on MIA PaCa-2 cells, the activity at 30 µM is 251%. Also, in data set [2], the “H2O2 generation, NADH/NADPH dehydrogenase -” value amounted to 5.7 µM and the “H2O2 generation, NADH/NADPH dehydrogenase +” value is 9.0 µM. Further, in data set [3] (setting [7]), the logD stood at 2.03. Moreover, the EC50 in data set [4] turned out to be 1.6 µM. In “in vitro” (primary hepatocytes), this molecule gave a CC50 of 1.6 µM. In addition, in data set [5], the “stimulation of Complex I activity” value was “more than 30%” and the “Mito Check I, enzyme residual activity as compared to DMSO-treated sample” value is 159%.

Regarding `CCCCC(=O)NC1=C(Cl)C(=O)c2ccccc2C1=O` [compound 32], the CC50 in data set [1] (setting [6]) is 0.3 µM. In addition, the activity at 30 µM with MIA PaCa-2 cells turned out to be 506%. In data set [2], the “H2O2 generation, NADH/NADPH dehydrogenase -” value came out at 6.3 µM and the “H2O2 generation, NADH/NADPH dehydrogenase +” value is 10.6 µM. The logD in data set [3] (setting [7]) stood at 2.79. Moreover, in data set [4], the EC50 came to 2.2 µM. Moreover, in “in vitro” (primary hepatocytes), the CC50 was determined as 2.2 µM. In addition, in data set [5], the “stimulation of Complex I activity” value is reported as “more than 30%” and the “Mito Check I, enzyme residual activity as compared to DMSO-treated sample” value turned out to be 135%.

For the molecule `O=C1C(Cl)=C(Nc2nccs2)C(=O)c2ccccc21` [compound 38], the CC50 in data set [1] (setting [6]) was determined as 20.3 µM. The activity at 30 µM in the data set on MIA PaCa-2 cells was determined as 100%. Also, in data set [2], the “H2O2 generation, NADH/NADPH dehydrogenase -” value came to 1.9 µM and the “H2O2 generation, NADH/NADPH dehydrogenase +” value was 2.7 µM. Further, the logD in data set [3] (setting [7]) was 0.1. Besides, the EC50 in data set [4] was 26 µM. In addition, the CC50 in the data set “in vitro” (primary hepatocytes) worked out at 26 µM. Moreover, the “Mito Check I, enzyme residual activity as compared to DMSO-treated sample” value in data set [5] is listed as 105%.

Turning to `Cc1ccccc1NC1=C(Cl)C(=O)c2ccccc2C1=O` [compound 40], the CC50 in data set [1] (setting [6]) stood at 9 µM. Besides, the activity at 30 µM with MIA PaCa-2 cells was determined as 111%. For the same molecule, in data set [2], the “H2O2 generation, NADH/NADPH dehydrogenase -” value was 5.0 µM and the “H2O2 generation, NADH/NADPH dehydrogenase +” value amounted to 2.9 µM. Besides, the logD in data set [3] (setting [7]) was 0. The EC50 in data set [4] turned out to be 24.5 µM. In the data set “in vitro” (primary hepatocytes), the CC50 came to 24.5 µM. Besides, the “Mito Check I, enzyme residual activity as compared to DMSO-treated sample” value in data set [5] came to 103%.

As for `CC1=C(N2CC2)C(=O)c2ccccc2C1=O` [compound 55], the CC50 in data set [1] (HCC1187, read-out: LC50 HCC1187) turned out to be 51.8 µM. Besides, the “Selective cytotoxicity index HCC 1187 ATO” value in data set [1] (human) was found to be 15.8. Further, the activity at 30 µM in the data set with MIA PaCa-2 cells turned out to be 416%. Moreover, in data set [2], the “H2O2 generation, NADH/NADPH dehydrogenase -” value was 2.1 µM and the “H2O2 generation, NADH/NADPH dehydrogenase +” value amounted to 3.3 µM. Besides, in data set [3], the logD was found to be 0.12. The EC50 in data set [4] is greater than 90 µM. The CC50 in the data set “in vitro” is greater than 90 µM. In data set [5], the “Mito Check I, enzyme residual activity as compared to DMSO-treated sample” value amounted to 72%.

With `O=C1C(Nc2ccccc2)=CC(=O)c2ncccc21` [compound 67, reference compound], the CC50 in data set [1] (setting [6]) is 3 µM. The activity at 30 µM with MIA PaCa-2 cells turned out to be 783%. In addition, in data set [2], the “H2O2 generation, NADH/NADPH dehydrogenase -” value worked out at 5.5 µM and the “H2O2 generation, NADH/NADPH dehydrogenase +” value worked out at 11.9 µM. Moreover, the logD in data set [3] (setting [7]) worked out at 3.45. The EC50 in data set [4] came to 17.8 µM. The molecule further yielded a CC50 in “in vitro” (primary hepatocytes) of 17.8 µM. In addition, the “Mito Check I, enzyme residual activity as compared to DMSO-treated sample” value in data set [5] came to 116%.

The logD is the decadic logarithm of the distribution of all forms, ionised or not, between an organic phase and buffer at a given pH. One may read the EC50 as the concentration that produces a half-maximal response.
